Measured values from patent US9328122B2, “7-substituted Hanfangichin B derivative, and preparation method and use thereof” (HANGZHOU BENSHENG PHARMACEUTICAL CO., LTD., priority 2012, dated 2016).
Converted amounts (≈) assume the structure as drawn.

Tests used:
[1] = test system: RKO (human colon adenocarcinoma) cells; test: MTT cell growth inhibition, solid tumor cells; type: cell-based; conditions: Homo sapiens, RKO, 72 h, MTT; for IC50: read-out: IC50; for IC90: read-out: IC90
From the text: (§1) Hep-2 (laryngeal carcinoma), A549 (human lung cancer), CaES-17 (esophageal cancer cell), PC-3 (prostate cancer), CNE (nasopharyngeal carcinoma cell) and SK-OV-3 (ovarian cancer cell), all of which were purchased from China Center For Type Culture Collection; RKO (human colon adenocarcinoma cell), MGC-803 (human gastric cancer cell), MG-63 (osteosarcoma), and U87-MG (malignant glioma cell), all of which were purchased from Fuxiang Bio-tech Co. Ltd., Shanghai, China; PANC-1 (pancreatic cancer), Becap37 (human breast cancer cell), Hela (human cervical cancer cell) and Hep G2 (human liver cancer cell), all of which were donated by Cancer Research Institute of Zhejiang University, China.
(§2) 6000 well-growing human solid tumor cells were obtained and inoculated into wells of a 96-well cell culture plate. The culture medium was DMEM High Glucose cell culture medium containing 10% fetal bovine serum. The plate was placed in a carbon dioxide cell incubator (5% CO2) at 37° C. and incubated for 24 hours. After added with 7-substituted fangchinoline derivatives of different concentration and mixing uniformly, the plate was placed in a carbon dioxide cell incubator (5% CO2) at 37° C. and incubated for 72 hours. Then the viable cell concentration was determined by the MTT method.

[2] = test system: Hela (human cervical cancer) cells; test: MTT cell growth inhibition, solid tumor cells; type: cell-based; conditions: Homo sapiens, Hela, 72 h, MTT; for IC50: read-out: IC50; for IC90: read-out: IC90
From the text: as §1, §2

[3] = test system: MG-63 (osteosarcoma) cells; test: MTT cell growth inhibition, solid tumor cells; type: cell-based; conditions: Homo sapiens, MG-63, 72 h, MTT; for IC50: read-out: IC50; for IC90: read-out: IC90
From the text: as §1, §2

[4] = test system: Becap-37 (human breast cancer) cells; test: MTT cell growth inhibition, solid tumor cells; type: cell-based; conditions: Homo sapiens, Becap-37, 72 h, MTT; for IC50: read-out: IC50; for IC90: read-out: IC90
From the text: as §1, §2

[5] = test system: U87-MG (malignant glioma) cells; test: MTT cell growth inhibition, solid tumor cells; type: cell-based; conditions: Homo sapiens, U-87 MG, U87-MG, 72 h, MTT; for IC50: read-out: IC50; for IC90: read-out: IC90
From the text: as §1, §2

[6] = test system: MGC-803 (human gastric cancer) cells; test: MTT cell growth inhibition, solid tumor cells; type: cell-based; conditions: MGC-803, 72 h, MTT; for IC50: read-out: IC50; for IC90: read-out: IC90
From the text: as §1, §2

[7] = test system: Hep-2 (laryngeal carcinoma) cells; test: MTT cell growth inhibition, solid tumor cells; type: cell-based; conditions: Homo sapiens, Hep-2, 72 h, MTT; for IC50: read-out: IC50; for IC90: read-out: IC90
From the text: as §1, §2

[8] = test system: Hep G2 (human liver cancer) cells; test: MTT cell growth inhibition, solid tumor cells; type: cell-based; conditions: Homo sapiens, HepG2, Hep G2, 72 h, MTT; for IC50: read-out: IC50; for IC90: read-out: IC90
From the text: as §1, §2

[9] = test system: A549 (human lung cancer) cells; test: MTT cell growth inhibition, solid tumor cells; type: cell-based; conditions: Homo sapiens, A549, 72 h, MTT; for IC50: read-out: IC50; for IC90: read-out: IC90
From the text: as §1, §2

[10] = test system: SK-OV-3 (ovarian cancer) cells; test: MTT cell growth inhibition, solid tumor cells; type: cell-based, human; conditions: Homo sapiens, SK-OV-3, 72 h, MTT; for IC50: read-out: IC50; for IC90: read-out: IC90
From the text: as §1, §2

[11] = test system: PC-3 (prostate cancer) cells; test: MTT cell growth inhibition, solid tumor cells; type: cell-based, human; conditions: Homo sapiens, PC-3, 72 h, MTT; for IC50: read-out: IC50; for IC90: read-out: IC90
From the text: as §1, §2

[12] = test system: CaEs-17 (esophageal cancer) cells; test: MTT cell growth inhibition, solid tumor cells; type: cell-based, human; conditions: Homo sapiens, CaEs17, CaEs-17, 72 h, MTT; for IC50: read-out: IC50; for IC90: read-out: IC90
From the text: as §1, §2

[13] = test system: PANC-1 (pancreatic cancer) cells; test: MTT cell growth inhibition, solid tumor cells; type: cell-based, human; conditions: Homo sapiens, PANC-1, 72 h, MTT; for IC50: read-out: IC50; for IC90: read-out: IC90
From the text: as §1, §2

[14] = test system: CNE (nasopharyngeal carcinoma) cells; test: MTT cell growth inhibition, solid tumor cells; type: cell-based, human; conditions: Homo sapiens, CNE, 72 h, MTT; for IC50: read-out: IC50; for IC90: read-out: IC90
From the text: as §1, §2

tumor = test: Antitumor activity compared with fangchinoline, overall statement; type: cell-based; conditions: tumor type not specified
[15] = test system: NB4 (acute promyelocytic leukemia) cells; test: MTT cell growth inhibition, leukemia cells; type: cell-based; conditions: Homo sapiens, NB4, 72 h, MTT; for IC50: read-out: IC50; for IC90: read-out: IC90
From the text: (§3) Leukemia cell lines: leukemia cell lines: K562adr (drug-resistant, chronic myeloid leukemia, CML), NB4 (acute promyelocytic leukemia, AML), Kasumi-1 (acute myeloid leukemia M2 type, AML-M2), Jurkat (acute lymphoblastic leukemia, ALL), all of which were donated by Cancer Research Institute of Zhejiang University, China; and H9 (acute lymphoblastic leukemia, ALL), which was purchased from China Center for Type Culture Collection.
(§4) Reagents: The standard sample of fangchinoline (FAN) was purchased from Ci Yuan Biotechnology Co., Ltd., Shaanxi, China; and the 7-substituted fangchinoline derivatives according to the present invention.
(§5) 6000 well-growing leukemia cells were obtained and inoculated into wells of a 96-well cell culture plate. The culture medium was a RPMI-1640 cell culture medium containing 10% fetal bovine serum. After adding the 7-substituted fangchinoline derivatives of different concentrations the next day and mixing uniformly, the plate was placed in a carbon dioxide cell incubator (5% CO2) at 37° C. and incubating for 72 hours. Then the viable cell concentration was determined by the MTT method.

[16] = test system: K562/ADR (K562adr, drug-resistant chronic myeloid leukemia) cells; test: MTT cell growth inhibition, leukemia cells; type: cell-based; conditions: Homo sapiens, K562/ADR, 72 h, MTT; for IC50: read-out: IC50; for IC90: read-out: IC90
From the text: as §3, §4, §5

[17] = test system: RPMI 8226 (multiple myeloma) cells; test: MTT cell growth inhibition, multiple myeloma cells; type: cell-based, human; conditions: Homo sapiens, RPMI 8226, 72 h, MTT; for IC50: read-out: IC50; for IC90: read-out: IC90
Method: Myeloma cell lines: RPMI8226 (multiple myeloma), purchased from Fuxiang Bio-tech Co. Ltd., Shanghai, China.
as §5, with “well-growing” for “well-growing leukemia”, “incubated” for “incubating”

Structure (SMILES)	IC50 [1] [µg/mL]	IC90 [1] [µg/mL]	IC50 [2] [µg/mL]	IC90 [2] [µg/mL]	IC50 [3] [µg/mL]	IC90 [3] [µg/mL]	IC50 [4] [µg/mL]	IC90 [4] [µg/mL]	IC50 [5] [µg/mL]	IC90 [5] [µg/mL]	IC50 [6] [µg/mL]	IC90 [6] [µg/mL]	IC50 [7] [µg/mL]	IC90 [7] [µg/mL]	IC50 [8] [µg/mL]	IC90 [8] [µg/mL]	IC50 [9] [µg/mL]	IC90 [9] [µg/mL]	IC50 [10] [µg/mL]	IC90 [10] [µg/mL]	also measured
COc1ccc2cc1Oc1ccc(cc1)C[C@H]1c3cc(c(OC)cc3CCN1C)Oc1c(OCC3CC3)c(OC)cc3c1[C@H](C2)N(C)CC3 [BS-FC-208]	1.64 (≈ 2.47 µM)	4.64 (≈ 7 µM)	1.74 (≈ 2.63 µM)	4 (≈ 6.03 µM)	1.6 (≈ 2.41 µM)	2.5 (≈ 3.77 µM)	2.35 (≈ 3.55 µM)	5.55 (≈ 8.37 µM)	1.99 (≈ 3 µM)	7.48 (≈ 11.3 µM)	1.49 (≈ 2.25 µM)	5.98 (≈ 9.02 µM)	3.27 (≈ 4.93 µM)	8.05 (≈ 12.1 µM)	1.94 (≈ 2.93 µM)	5.95 (≈ 8.98 µM)	2.51 (≈ 3.79 µM)	13.1 (≈ 19.7 µM)	3.77 (≈ 5.69 µM)	7.85 (≈ 11.8 µM)	IC50 [11]: 3.07 µg/mL (≈ 4.63 µM); IC90 [11]: 5.91 µg/mL (≈ 8.92 µM); IC50 [12]: 1.79 µg/mL (≈ 2.7 µM); IC90 [12]: 6.87 µg/mL (≈ 10.4 µM); IC50 [13]: 2.87 µg/mL (≈ 4.33 µM); IC90 [13]: 8.31 µg/mL (≈ 12.5 µM); IC50 [14]: 2.7 µg/mL (≈ 4.07 µM); IC90 [14]: 6 µg/mL (≈ 9.05 µM); antitumor activity compared with that of fangchinoline (tumor): significantly superior; IC50 [15]: 0.48 µg/mL (≈ 0.724 µM); IC90 [15]: 2.48 µg/mL (≈ 3.74 µM); IC50 [16]: 0.28 µg/mL (≈ 0.422 µM); IC90 [16]: 2.35 µg/mL (≈ 3.55 µM); IC50 [17]: 0.13 µg/mL (≈ 0.196 µM); IC90 [17]: 0.5 µg/mL (≈ 0.754 µM)
COc1ccc2cc1Oc1ccc(cc1)C[C@H]1c3cc(c(OC)cc3CCN1C)Oc1c(OS(=O)(=O)c3ccc(C)cc3)c(OC)cc3c1[C@H](C2)N(C)CC3 [BS-FC-102]	1.44 (≈ 1.89 µM)	2.33 (≈ 3.05 µM)	1.44 (≈ 1.89 µM)	3.39 (≈ 4.44 µM)	3.18 (≈ 4.17 µM)	4.83 (≈ 6.33 µM)	2.49 (≈ 3.26 µM)	4 (≈ 5.24 µM)	1.79 (≈ 2.35 µM)	5.39 (≈ 7.06 µM)	1.71 (≈ 2.24 µM)	4.95 (≈ 6.49 µM)	3.99 (≈ 5.23 µM)	11.1 (≈ 14.5 µM)	1.56 (≈ 2.04 µM)	3.94 (≈ 5.16 µM)	2.41 (≈ 3.16 µM)	6.55 (≈ 8.59 µM)	1.92 (≈ 2.52 µM)	8.07 (≈ 10.6 µM)	IC50 [11]: 3.17 µg/mL (≈ 4.16 µM); IC90 [11]: 5.85 µg/mL (≈ 7.67 µM); IC50 [12]: 2.47 µg/mL (≈ 3.24 µM); IC90 [12]: 7.91 µg/mL (≈ 10.4 µM); IC50 [13]: 3.16 µg/mL (≈ 4.14 µM); IC90 [13]: 6.75 µg/mL (≈ 8.85 µM); IC50 [14]: 3.5 µg/mL (≈ 4.59 µM); IC90 [14]: 6.9 µg/mL (≈ 9.04 µM); antitumor activity compared with that of fangchinoline (tumor): significantly superior; IC50 [15]: 0.38 µg/mL (≈ 0.498 µM); IC90 [15]: 0.94 µg/mL (≈ 1.23 µM); IC50 [16]: 0.4 µg/mL (≈ 0.524 µM); IC90 [16]: 3.03 µg/mL (≈ 3.97 µM); IC50 [17]: 0.14 µg/mL (≈ 0.184 µM); IC90 [17]: 0.77 µg/mL (≈ 1.01 µM)
COc1ccc2cc1Oc1ccc(cc1)C[C@H]1c3cc(c(OC)cc3CCN1C)Oc1c(OC3CCCC3)c(OC)cc3c1[C@H](C2)N(C)CC3 [BS-FC-220]	1.25 (≈ 1.85 µM)	3.73 (≈ 5.51 µM)	1.43 (≈ 2.11 µM)	3.71 (≈ 5.48 µM)	2.8 (≈ 4.14 µM)	3.6 (≈ 5.32 µM)	3.19 (≈ 4.71 µM)	6.1 (≈ 9.01 µM)	2.28 (≈ 3.37 µM)	7.03 (≈ 10.4 µM)	1.4 (≈ 2.07 µM)	3.96 (≈ 5.85 µM)	4.2 (≈ 6.21 µM)	10.3 (≈ 15.2 µM)	2.37 (≈ 3.5 µM)	7.01 (≈ 10.4 µM)	2.55 (≈ 3.77 µM)	4.97 (≈ 7.34 µM)	5.41 (≈ 7.99 µM)	14.2 (≈ 21.1 µM)	IC50 [11]: 4.55 µg/mL (≈ 6.72 µM); IC90 [11]: 7.61 µg/mL (≈ 11.2 µM); IC50 [12]: 2.6 µg/mL (≈ 3.84 µM); IC90 [12]: 9.32 µg/mL (≈ 13.8 µM); IC50 [13]: 2.79 µg/mL (≈ 4.12 µM); IC90 [13]: 7.68 µg/mL (≈ 11.3 µM); IC50 [14]: 3.2 µg/mL (≈ 4.73 µM); IC90 [14]: 7.6 µg/mL (≈ 11.2 µM); antitumor activity compared with that of fangchinoline (tumor): significantly superior; IC50 [15]: 0.66 µg/mL (≈ 0.975 µM); IC90 [15]: 3.16 µg/mL (≈ 4.67 µM); IC50 [16]: 0.43 µg/mL (≈ 0.635 µM); IC90 [16]: 4 µg/mL (≈ 5.91 µM); IC50 [17]: 0.12 µg/mL (≈ 0.177 µM); IC90 [17]: 0.5 µg/mL (≈ 0.739 µM)
